Experimental data reported in PubChem BioAssay (NCI).
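Five compound concentrations were applied to cells in 96-well plates for 48 hours; endpoints were derived by simple linear interpolation of the resulting dose-response curve. The concentration for full growth arrest is given as TGI.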

Assays:
Assay in all cases: DTP human tumour cell line panel, 48 h
[1] = tested on: 786-0 renal
[2] = tested on: OVCAR-4 ovarian
[3] = tested on: A498 renal
[4] = tested on: SN12C renal
[5] = tested on: OVCAR-5 ovarian
[6] = tested on: MDA-N
[7] = tested on: BT-549 breast
[8] = tested on: ACHN renal
[9] = tested on: TK-10 renal
[10] = tested on: NCI-H460 lung
[11] = tested on: U251 CNS
[12] = tested on: EKVX NSCLC
[13] = tested on: SK-MEL-28 melanoma
[14] = tested on: HCC-2998 colon
[15] = tested on: A549 NSCLC
[16] = tested on: SF-539 CNS
[17] = tested on: OVCAR-3 ovarian
[18] = tested on: OVCAR-8 ovarian
[19] = tested on: SNB-19 CNS
[20] = tested on: MDA-MB-231 breast
[21] = tested on: MCF7 breast
[22] = tested on: HL-60(TB) leukemia
[23] = tested on: NCI/ADR-RES ovarian
[24] = tested on: SK-OV-3 ovarian
[25] = tested on: SNB-75 CNS
[26] = tested on: IGROV1 ovarian
[27] = tested on: UACC-62 melanoma
[28] = tested on: MDA-MB-435
[29] = tested on: KM12 colon
[30] = tested on: HS 578T breast
[31] = tested on: SF-268 CNS
[32] = tested on: RXF 393 renal
[33] = tested on: MALME-3M melanoma
[34] = tested on: T-47D breast
[35] = tested on: PC-3 prostate
[36] = tested on: CCRF-CEM leukemia
[37] = tested on: K-562 leukemia
[38] = tested on: SR leukemia
[39] = tested on: HCT-15 colon
[40] = tested on: SK-MEL-5 melanoma
[41] = tested on: NCI-H226 lung
[42] = tested on: HT29 colon
[43] = tested on: NCI-H23 lung
[44] = tested on: SK-MEL-2 melanoma
[45] = tested on: RPMI-8226 leukemia
[46] = tested on: HOP-62 NSCLC
[47] = tested on: MOLT-4 leukemia
[48] = tested on: UO-31 renal
[49] = tested on: LOX IMVI melanoma
[50] = tested on: DU-145 prostate
[51] = tested on: COLO 205 colon
[52] = tested on: NCI-H522 lung
[53] = tested on: SF-295 CNS
[54] = tested on: SW-620 colon
[55] = tested on: M14 melanoma
[56] = tested on: HOP-92 NSCLC
[57] = tested on: HCT-116 colon
[58] = tested on: CAKI-1 renal
[59] = tested on: UACC-257 melanoma

Measured: TGI

O=C1NC2(CCCCC2)N=C2C(Cl)CCCC12Cl (stereo unspecified)
> 100 µM: [1] | [2] | [3] | [4] | [5] | [6] | [7] | [8] | [9] | [10] | [11] | [12] | [13] | [14] | [15] | [16] | [17] | [18] | [19] | [20] | [21] | [22] | [23] | [24] | [25] | [26] | [27] | [28] | [29] | [30] | [31] | [32] | [33] | [34] | [35] | [36] | [37] | [38] | [39] | [40] | [41] | [42] | [43] | [44] | [45] | [46] | [47] | [48] | [49] | [50] | [51] | [52] | [53] | [54] | [55]

N#CCC(=O)Nn1c(CC#N)nnc1Cc1ccccc1
> 100 µM: [1] | [5] | [6] | [7] | [8] | [9] | [10] | [11] | [56] | [13] | [14] | [15] | [16] | [17] | [18] | [19] | [20] | [21] | [22] | [57] | [23] | [25] | [26] | [58] | [27] | [28] | [29] | [30] | [59] | [31] | [32] | [33] | [34] | [35] | [37] | [38] | [39] | [40] | [41] | [42] | [43] | [44] | [45] | [46] | [47] | [48] | [50] | [52] | [53] | [54] | [55]
